{"source": "paper PMC4580987", "about": "“Catalytic site inhibition of insulin-degrading enzyme by a small molecule induces glucose intolerance in mice” (Nature Communications, 2015)", "key": {"hIDE [1]": {"target": "T1, hIDE (Homo sapiens, UniProt P14735)", "T1 construct": "made in house", "T1 sequence (P14735 1-1019)": "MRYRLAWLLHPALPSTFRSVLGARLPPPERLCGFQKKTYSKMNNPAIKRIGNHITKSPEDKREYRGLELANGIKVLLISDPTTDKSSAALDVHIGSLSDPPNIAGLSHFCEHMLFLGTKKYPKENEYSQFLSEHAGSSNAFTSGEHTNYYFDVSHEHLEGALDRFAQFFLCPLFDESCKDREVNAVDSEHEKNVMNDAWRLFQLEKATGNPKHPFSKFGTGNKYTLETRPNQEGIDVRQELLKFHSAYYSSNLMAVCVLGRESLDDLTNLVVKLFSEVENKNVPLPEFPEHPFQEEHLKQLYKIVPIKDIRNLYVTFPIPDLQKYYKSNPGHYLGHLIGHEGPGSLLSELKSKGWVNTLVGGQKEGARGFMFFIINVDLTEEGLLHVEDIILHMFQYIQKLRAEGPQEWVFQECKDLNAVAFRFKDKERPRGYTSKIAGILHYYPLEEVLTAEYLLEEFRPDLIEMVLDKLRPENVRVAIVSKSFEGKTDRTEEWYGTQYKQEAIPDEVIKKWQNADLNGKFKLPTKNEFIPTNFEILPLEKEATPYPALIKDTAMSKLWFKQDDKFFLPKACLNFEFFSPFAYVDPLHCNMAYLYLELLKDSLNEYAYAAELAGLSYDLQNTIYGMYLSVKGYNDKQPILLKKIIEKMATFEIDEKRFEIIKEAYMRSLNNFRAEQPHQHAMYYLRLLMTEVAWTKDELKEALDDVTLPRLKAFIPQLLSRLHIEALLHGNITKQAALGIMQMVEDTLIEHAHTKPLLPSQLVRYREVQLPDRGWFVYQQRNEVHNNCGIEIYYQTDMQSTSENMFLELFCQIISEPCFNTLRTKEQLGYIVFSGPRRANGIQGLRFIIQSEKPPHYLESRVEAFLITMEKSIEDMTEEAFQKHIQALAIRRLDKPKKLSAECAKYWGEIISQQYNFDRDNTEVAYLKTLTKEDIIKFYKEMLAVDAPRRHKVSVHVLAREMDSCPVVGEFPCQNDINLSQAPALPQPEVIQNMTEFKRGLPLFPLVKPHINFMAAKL", "experiment": "In vitro hIDE inhibition of Aβ16–23-based substrate hydrolysis", "assay_type": "biochemical", "protocol": "In vitro IDE activity was measured with a quenched substrate […]. Human recombinant IDE was cloned and purified as previously described. […] All measurements were carried out as 8-point dose response curves and reported as the average of at least three independent measurements. […] Data analysis was performed using Xlfit v 5.0 and GraphPad Prism v 4.0. Nonlinear curve fitting and statistical analysis was done using built-in functions."}, "isolated mouse islets": {"system": "isolated mouse islets", "conditions": "3 or 10 µM", "protocol": "Digestion was stopped by addition of cold HBSS with 10% FCS. The islets were washed twice in HBSS with FCS and once in RPMI with FCS. […] The next day, the islets were incubated in fresh DMEM with 10% FCS without glucose for 90 min. Then glucose at 2.8 mM together with BDM44378 was added; after 1 h, the supernatant was removed and replaced by fresh medium with 28 mM glucose, followed by another 1-h incubation in the presence or absence of inhibitor."}, "[2]": {"system": "insulin receptor, Akt and ERK phosphorylation", "experiment": "Insulin signalling by western blotting in liver and muscle", "assay_type": "in vivo, mouse", "conditions": "50 mg kg^−1 ip, after insulin injection", "protocol": "Liver and muscle were homogenized in a lysis buffer (1% triton, 0.5 % deoxycholate, 10 mM Na pyruvate, 2 mM Na Vanadate, 100 mM NaF) supplemented with the proteases inhibiteurs cocktails) and the resulting homogenate clarified by centrifugation. Proteins expression and phosphorylation were evaluated by western blot analysis. The signals were detected with a Pierce ECL western blotting substrate (Thermo scientific), according the manufacturer instructions. Primary antibodies were diluted at 1/1,000 and incubated overnight in PBS 0.1% Tween 20, 5% milk."}, "C57BL/6J mice": {"system": "C57BL/6J mice", "experiment": "Intraperitoneal glucose tolerance test (IPGTT)", "assay_type": "in vivo, mouse", "conditions": "50 mg kg^−1 ip, intraperitoneal glucose 1.5 g kg^−1", "protocol": "OGTT and IPGTT were performed on 11 to 16 week-old male or female mice (n=4–7 per experimental group). C57BL/6J mice were purchased from Charles River Laboratories (France), Stock no. 000664. C57BL/6J Ide−/− mice were obtained from Guenette[20] and bred in the animal facility of INSERM U1151. WT C57BL/6J mice of the same genetic background were bred in the same animal facility in parallel. NOD Ide−/− mice were generated by backcrossing C57BL/6J Ide−/− mice with NOD wt mice bred in the animal facility of INSERM U1151 and maintained in this facility together with WT NOD mice. Normoglycemic WT and Ide−/− female NOD mice aged 14 weeks were used for OGTTs. Following a 6 h fasting period, a small tail cut was made, basal blood glucose was determined. […] Fifteen minutes later, blood glucose concentrations were measured before and after (up to 120 min, as shown) oral (2 g kg^−1 or 3 g kg^−1, as shown) or intraperitoneal (1.5 g kg^−1) glucose administration. […] Blood glucose levels were determined using an Accu-Check glucometer (Roche Diagnostics). Areas under the curves (AUC) for OGTT and IPGTT were calculated to evaluate glucose tolerance. Plasma insulin concentrations were measured by ELISA (cat. no. 10-1247-01,Mercodia) in blood samples collected 15 min before and 15 and 90 min relative to oral glucose injection. […]"}, "hIDE [3]": {"target": "T1, hIDE", "experiment": "Small-angle X-ray scattering (SAXS) of hIDE conformation", "protocol": "SAXS data were collected at the APS 18-ID (BioCAT) with the Mar 165 CCD detector at room temperature (24 °C). The incident X-ray wavelength is 1.033 Å. hIDE was purified as described before. After 2 gel-filtration, hIDE was concentrated and dialysis against 20 mM Hepes, pH 7.2, 100 mM NaCl. […] The data reducing and all data processing were carried out using ATSAS. P(r) function was calculated with GNOM[44], and SAXS data fitting was performed with CRYSOL[45]."}}, "note": "Entries after “also recorded” stand apart in the source; their conditions may differ."}
{"smiles": "O=C(C[C@@H](Cc1ccc2ccccc2c1)n1cc(CNC(=O)c2ccc(F)cc2)nn1)NO", "note": "[Compound 1]", "values": [{"measurement": "IC50", "setting": "hIDE [1]", "result": 300, "unit": "nM"}, {"measurement": "insulin in the supernatant of islets, Ide−/−", "setting": "isolated mouse islets; islets from Ide−/− mice", "result": "did not respond"}, {"measurement": "insulin detectable in the supernatant of islets, wild-type", "setting": "isolated mouse islets; islets from wild-type C57BL/6J mice, 2.8 and 28 mM glucose", "result": "increased, in a dose-dependent manner"}, {"measurement": "insulin signalling: phosphorylation of insulin receptor, Akt and ERK in liver and muscle", "setting": "[2]", "result": "Increase insulin signaling; also recorded: increased the phosphorylation"}, {"measurement": "plasma glucose / glucose tolerance in IPGTT", "setting": "C57BL/6J mice", "result": "Impairs glucose tolerance in IPGTT"}, {"measurement": "radius of gyration (Rg) of IDE with compound", "setting": "hIDE [3]; 53.1 Å without compound", "result": 47.6, "unit": "Å"}, {"measurement": "Dmax of IDE with compound", "setting": "hIDE [3]; 180 Å without compound", "result": 160, "unit": "Å"}, {"measurement": "fraction of IDE in the open conformation with compound", "setting": "hIDE [3]; ∼63% open in the absence of compound, fit of SAXS profile", "result": "~16", "unit": "%"}]}
